Values after ≈ are worked out from the molar mass of the structure shown. Read-outs that look alike come from different tables or passages of the source. Marks after values point to notes of the source that are not given here.
How the values were obtained:
[1] = system: MCF-7 human breast cancer; assay: Human cytotoxicity (MTT) assay; assay type: cell-based; conditions: for % Inh. MCF-7: after 72 hours, Conc. 200 µM
Method: (§1) This Example describes human cytotoxicity of individual SMs. […] Three cancer cell lines (NCI-H460 human non-small cell lung cancer, SF-268 human central nervous system glioma, and MCF-7 human breast cancer) were used that are routinely use as “sentinels” (if a compound is cytotoxic, then at least one of these are usually killed). HFF cells (human foreskin normal cells, not cancer cells) was also used as a “control”.
(§2) Tested concentrations of these SMs increased at 50, 100 uM, then at 200 uM (Table 7).

[2] = system: SF-268 human central nervous system glioma; assay: Human cytotoxicity (MTT) assay; assay type: cell-based; conditions: for % Inh. SF-268: after 72 hours, Conc. 200 µM
Method: as §1, §2

[3] = system: HFF cells (human foreskin normal cells); assay: Human cytotoxicity (MTT) assay; assay type: cell-based; conditions: after 72 hours; for % Inh. HFF: Conc. 200 µM
Method: as §1, §2

[4] = system: NCI-H460 human non-small cell lung cancer; assay: Human cytotoxicity (MTT) assay; assay type: cell-based; conditions: for % Inh. NCI-H460: Conc. 200 µM
Method: as §1, §2

Meloidogyne incognita = assay: In vitro nematicidal/nematistatic assay on the infective stage (J2 juveniles) of the root-knot nematode; assay type: in vivo; conditions: for Concentration at which nematicidal activity was observed: observational data; for LC50 / EC50: Meloidogyne incognita
Method: (§3) Time points for observations were at 24, 48, and 72 h after initial exposure of each SM against J2 juveniles of M. incognita and T. semipenetrans under in vitro conditions.
(§4) After assessments of individual SM toxicity, the combined toxic effects of these SMs was assayed in order to understand interaction between each SM. […] In addition, the additive index values were calculated and indicated in each Table.
(§5) When analyzing the results of combination effects of the SMs, the statistical method described by DeLorenzo and Serrano (2003) was used as follows: S=(Am/Ai)+(Bm/Bi). Where: S=sum of biological activity or total toxicant unit (TTU); Am=LC50 for compound A in the mixture; Ai=LC50 for compound A in the individual effect; Bm=LC50 for compound B in the mixture; Bi=LC50 for compound B in the individual effect. S values will be used to calculate an additive index. If S≤1.0, then the additive index=(1/S)−1.0.

[5] = system: Tylenchulus semipenetrans; assay: In vitro nematicidal/nematistatic assay on the infective stage (J2 juveniles) of the citrus nematode; assay type: in vivo; conditions: for Concentration at which nematicidal activity was observed: observational data; for LC50 / EC50: Tylenchulus semipenetrans
Method: as §3, §4, §5

Caenorhabditis elegans = assay: whole plant or invertebrate
Method: (§6) Laboratory assays were carried out to assess the nematicidal activity of the above-mentioned secondary metabolites (SMs) on the infective stage (i.e. the one that infects the roots of plants) of: 1) the root-knot nematode, (M. incognita); and 2) the citrus nematode (T semipenetrans). The effect of these SMs on five beneficial soil nematode species microbivores and those involved in nutrient cycling) was also tested to make sure these compounds only affect plant parasites (only for individual SM experiments).
(§7) Five non-target nematode species includes:
(§8) two free-living bacterivores: Caenorhabditis elegans and Rhabditis blumi.
(§9) The susceptibility of test population to these SMs was assessed by constructing a dosage-mortality curve in which the dosage was plotted against the percentage mortality at a given period of time (FIGS. 1-3).
(§10) Concentration-response data for each concentration of single Photorhabdus-derived SMs and the mixtures were pooled and subjected to Probit regression analysis using the Polo Plus program (LeOra software, Petaluma, Calif.). The LC or EC values, along with corresponding 95% confidence intervals, were estimated for each single SM and SM mixture at each exposure time, depending on the experimental setting. Statistically significant differences in LC or EC values among SMs at a given exposure time period within or among nematode species were interpreted based on non-overlapping of 95% confidence intervals. For the toxicity data visualization, the relationship between percent mortality or temporary quiescence and concentration was described by a sigmoidal curve, which is fitted by the logistical function, using the statistical software package Sigmaplot for Windows, version 14.0 (Systat Software Inc., San Jose, Calif., USA).

Rhabditis blumi = assay: whole plant or invertebrate
Method: as §6, §7, §8, §9, §10

Steinernema carpocapsae = assay: whole plant or invertebrate
Method: as §6, §7
(§11) three entomopathogenic species: Steinernema carpocapsae, H bacteriophora, and H sonorensis.
as §9
Concentration-response data for each concentration of single Photorhabdus-derived SMs and the mixtures were pooled and subjected to Probit regression analysis using the Polo Plus program (LeOra software, Petaluma, Calif.). The LC or EC values, along with corresponding 95% confidence intervals, were estimated for each single SM and SM mixture at each exposure time, depending on the experimental setting. […]

in vitro = assay: in vitro
Method: as §6, §7, §11, §9, §10

H. sonorensis = assay: animal or person; conditions: read-out: EC50 (effective concentration causing 50% reversible nematode paralysis, temporary quiescence)
Method: as §6, §7, §11, §9, §10

H. bacteriophora = assay: whole plant or invertebrate; conditions: Heterorhabditis bacteriophora, read-out: EC50 (effective concentration causing 50% reversible nematode paralysis, temporary quiescence)
Method: as §6, §7, §11, §9, §10

[6] = M. incognita, in vitro, 24 h exposure
[7] = read-out: LC50 (lethal concentration causing 50% nematode death), Table 5: individual compounds or compound mixtures, J2 juveniles of M. incognita, in vitro
[8] = T. semipenetrans, in vitro, 24 h exposure
[9] = read-out: LC50 (lethal concentration causing 50% nematode death), Table 6: individual compounds or compound mixtures, J2 juveniles of T. semipenetrans, in vitro

In the case of `O=C(O)/C=C/c1ccccc1` [TCA, trans-cinnamic acid], the “% Inh. MCF-7” value [1] is reported as 2.59%, the “% Inh. SF-268” value [2] is reported as 13.0% and the “% Inh. HFF” value [3] is reported as 10.8%.

Compound `COc1cccc2c1C(=O)c1c(O)c3c(c(O)c1C2=O)C[C@@](O)(C(=O)CO)C[C@@H]3O[C@H]1C[C@H](N)[C@H](O)[C@H](C)O1` [Doxorubicin, reference compound] has an inhibition at 1 µM ([4]; Homo sapiens, NCI-H460, MTT, after 72 hours, Conc. 1 μM (+ control), read-out: % Inh. NCI-H460) of 97.2%, an inhibition at 1 µM ([1]; Homo sapiens, MCF7, after 72 hours, Conc. 1 μM (+ control), read-out: % Inh. MCF-7) of 64.1% and an inhibition at 1 µM ([2]; Homo sapiens, SF-268, after 72 hours, Conc. 1 μM (+ control), read-out: % Inh. SF-268) of 86.7%. For the same compound, the inhibition at 1 µM ([3]; Homo sapiens, HFF, Conc. 1 μM (+ control)) was 64.9%.

In the case of `O=C(O)CC/C=C/c1ccccc1` [PPA, (4E)-5-phenylpent-4-enoic acid], the “LC50 (lethal concentration causing 50% nematode death)” value (Meloidogyne incognita; [6]) is reported as 44.4 (38.8-48.6) μg mL^−1, the “Concentration at which nematicidal activity was observed” value (Meloidogyne incognita; M. incognita) is reported as at least 40 µg/mL and the LC50 (Meloidogyne incognita; read-out: LC50 (concentration required to kill 50% nematode population), M. incognita, 24 h of exposure) is reported as 44 µg/mL. The LC50 (Meloidogyne incognita; read-out: LC50 (lethal concentration causing 50% nematode death), M. incognita, in vitro, 24 h exposure) was 44.4 µg/mL, the LC50 (Meloidogyne incognita; [7]) was 44.4 µg/mL and the LC50 (Meloidogyne incognita; J2 juveniles of M. incognita (RKN), 48 h exposure, read-out: LC50 (95% confidence interval)) was 42 µg/mL. The LC50 (Meloidogyne incognita; J2 juveniles of M. incognita (RKN), 72 h exposure, read-out: LC50 (95% confidence interval)) was 38.9 µg/mL, the “LC50 (lethal concentration causing 50% nematode death)” value [5, 8] was 66.3 (50.7-73.4) μg mL^−1 and the “Concentration at which nematicidal activity was observed” value ([5]; T. semipenetrans) was at least 40 µg/mL. The LC50 ([5]; read-out: LC50 (concentration required to kill 50% nematode population), T. semipenetrans, 24 h of exposure) was 66 µg/mL, the LC50 ([5]; read-out: LC50 (lethal concentration causing 50% nematode death), T. semipenetrans, in vitro, 24 h exposure) was 66.3 µg/mL and the LC50 [5, 9] was 66.3 µg/mL. The LC50 ([5]; J2 juveniles of T. semipenetrans (CN), 48 h exposure, read-out: LC50 (95% confidence interval)) was 59.8 µg/mL, the LC50 ([5]; J2 juveniles of T. semipenetrans (CN), 72 h exposure, read-out: LC50 (95% confidence interval)) was 42.2 µg/mL and the “% Inh. NCI-H460” value ([4]; MTT, after 72 hours) was 3.97%. The “% Inh. MCF-7” value [1] was −5.35%, the “% Inh. SF-268” value [2] was 7.76% and the “% Inh. HFF” value [3] was 22.6%. The “LC50 (lethal concentration causing 50% nematode death)” value (Caenorhabditis elegans; C. elegans, in vitro) was 278 µg/mL (≈ 1580 µM), the “LC50 (lethal concentration causing 50% nematode death)” value (Rhabditis blumi; R. blumi, in vitro) was 346 µg/mL (≈ 1960 µM) and the “LC50 (lethal concentration causing 50% nematode death)” value (Steinernema carpocapsae; S. carpocapsae, in vitro) was >400^e μg mL^−1. The LC50 (in vitro; H. bacteriophora) was over 400 µg/mL and the LC50 (in vitro; H. sonorensis, whole H. sonorensis nematodes (non-target entomopathogenic)) was over 400 µg/mL.

For `c1ccc2[nH]ccc2c1` [ID, indole], the “Concentration at which nematistatic activity (reversible quiescence) was induced” value (Meloidogyne incognita; M. incognita) was over 40 µg/mL, the “EC50 (effective concentration causing 50% reversible nematode paralysis, temporary quiescence)” value (Meloidogyne incognita; [6]) was 56.3 (52.9-59.6) μg mL^−1 and the “Concentration at which nematicidal activity was observed” value (Meloidogyne incognita; M. incognita) was at least 300 µg/mL. The EC50 (Meloidogyne incognita; read-out: EC50 (concentration required to immobilize 50% of nematode population), M. incognita) was 56 µg/mL, the EC50 (Meloidogyne incognita; read-out: EC50 (effective concentration causing 50% reversible nematode paralysis, temporary quiescence), M. incognita, in vitro, 24 h exposure) was 56.3 µg/mL and the LC50 (Meloidogyne incognita; [7]) was 307 µg/mL. For the same compound, the EC50 (Meloidogyne incognita; J2 juveniles of M. incognita (RKN), 48 h exposure, read-out: EC50 (95% confidence interval), reversible paralysis) was 61.3 µg/mL, the EC50 (Meloidogyne incognita; J2 juveniles of M. incognita (RKN), 72 h exposure, read-out: EC50 (95% confidence interval), reversible paralysis) was 76.3 µg/mL and the LC50 (Meloidogyne incognita; M. incognita, ID alone and SM mixtures, exposure time not given, read-out: LC50) was 307 µg/mL. The “Concentration at which nematistatic activity (reversible quiescence) was induced” value ([5]; T. semipenetrans) was over 10 µg/mL, the “EC50 (effective concentration causing 50% reversible nematode paralysis, temporary quiescence)” value [5, 8] was 37.1 (28.7-43.4) μg mL^−1 and the “Concentration at which nematicidal activity was observed” value ([5]; T. semipenetrans) was at least 300 µg/mL. It also gave an EC50 ([5]; read-out: EC50 (concentration required to immobilize 50% of nematode population), T. semipenetrans) of 37 µg/mL, an EC50 ([5]; read-out: EC50 (effective concentration causing 50% reversible nematode paralysis, temporary quiescence), T. semipenetrans, in vitro, 24 h exposure) of 37.1 µg/mL and an LC50 [5, 9] of 388 µg/mL. For the same compound, the EC50 ([5]; J2 juveniles of T. semipenetrans, 48 h exposure, read-out: EC50 (95% confidence interval), reversible paralysis) was 66.2 µg/mL, the EC50 ([5]; J2 juveniles of T. semipenetrans, 72 h exposure, read-out: EC50 (95% confidence interval), reversible paralysis) was 68.3 µg/mL and the LC50 ([5]; T. semipenetrans, ID alone and SM mixtures, exposure time not given, read-out: LC50) was 388 µg/mL. The “% Inh. NCI-H460” value ([4]; MTT, after 72 hours) was 30.5%, the “Toxicity against NCI-H460” value ([4]; at 200 uM) was 30.5% and the “% Inh. MCF-7” value [1] was 5.31%. The “% Inh. SF-268” value [2] was 20.2%, the “% Inh. HFF” value [3] was 4.64% and the EC50 (Caenorhabditis elegans; Caenorhabditis elegans, read-out: EC50 (effective concentration causing 50% reversible nematode paralysis, temporary quiescence)) was 159 µg/mL (≈ 1360 µM). It also gave an EC50 (Rhabditis blumi; Metarhabditis blumi, read-out: EC50 (effective concentration causing 50% reversible nematode paralysis, temporary quiescence)) of 37 µg/mL (≈ 316 µM), an EC50 (Steinernema carpocapsae; Steinernema carpocapsae, read-out: EC50 (effective concentration causing 50% reversible nematode paralysis, temporary quiescence)) of over 400 µg/mL and an EC50 (H. sonorensis) of over 400 µg/mL. It also gave an EC50 (H. bacteriophora) of over 400 µg/mL.

Reference: patent US20220272975A1, “COMPOSITIONS AND METHODS FOR TREATING PLANT PARASITES” (Arizona Board Regents on Bealf of the University of Arizona, priority 2019, published 2022)
